Laboratory results reported in PubChem BioAssay AID248 (DTP/NCI, 2004).
Values joined by “and” are separate entries in the source; they are usually repeats but may differ in a detail not shown here. Equal values may be shown once. Inconclusive results and toxic doses are left out. No stated cut-off is given here; in the data, active means T/C of 150% or more; inactive means T/C below 125%.

Test system: L1210 leukemia ip in BDF1 mice, survival T/C
Experiment: NCI In Vivo Anticancer Drug Screen. Data for tumor model L1210 Leukemia (intraperitoneal) in B6D2F1 (BDF1) mice
Conditions: endpoint: mean survival time, higher = longer survival
Method in brief: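 Mice bearing the transplanted tumor received compound or vehicle. Survival of the treated group was divided by that of the vehicle-treated control group to give the ratio.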

[1] = dose: 100.0 mg/kg/injection, schedule: Q01DX001 (ip), vehicle: Klucel (hydroxypropylcellulose) (HPC)
[2] = dose: 200.0 mg/kg/injection, schedule: Q01DX001 (ip), vehicle: Klucel (hydroxypropylcellulose) (HPC)
[3] = dose: 400.0 mg/kg/injection, schedule: Q01DX001 (ip), vehicle: Klucel (hydroxypropylcellulose) (HPC)
[4] = dose: 100.0 mg/kg/injection, schedule: Q04DX003 (ip), vehicle: saline
[5] = dose: 200.0 mg/kg/injection, schedule: Q04DX003 (ip), vehicle: saline
[6] = dose: 400.0 mg/kg/injection, schedule: Q04DX003 (ip), vehicle: saline
[7] = dose: 100.0 mg/kg/injection, schedule: Q04DX003 (ip), vehicle: Klucel (hydroxypropylcellulose) (HPC)
[8] = dose: 200.0 mg/kg/injection, schedule: Q04DX003 (ip), vehicle: Klucel (hydroxypropylcellulose) (HPC)
[9] = dose: 100.0 mg/kg/injection, schedule: Q01DX009 (ip), vehicle: saline
[10] = dose: 200.0 mg/kg/injection, schedule: Q01DX009 (ip), vehicle: saline
[11] = dose: 400.0 mg/kg/injection, schedule: Q01DX009 (ip), vehicle: saline
[12] = dose: 100.0 mg/kg/injection, schedule: Q04DX003 (ip), vehicle: saline with Tween-80
[13] = dose: 200.0 mg/kg/injection, schedule: Q04DX003 (ip), vehicle: saline with Tween-80
[14] = dose: 12.5 mg/kg/injection, schedule: Q01DX009 (ip), vehicle: Klucel (hydroxypropylcellulose) (HPC)
[15] = dose: 25.0 mg/kg/injection, schedule: Q01DX009 (ip), vehicle: Klucel (hydroxypropylcellulose) (HPC)
[16] = dose: 50.0 mg/kg/injection, schedule: Q01DX009 (ip), vehicle: Klucel (hydroxypropylcellulose) (HPC)
[17] = dose: 100.0 mg/kg/injection, schedule: Q01DX001 (ip), vehicle: carboxymethylcellulose (CMC)
[18] = dose: 200.0 mg/kg/injection, schedule: Q01DX001 (ip), vehicle: carboxymethylcellulose (CMC)
[19] = dose: 400.0 mg/kg/injection, schedule: Q01DX001 (ip), vehicle: carboxymethylcellulose (CMC)
[20] = dose: 100.0 mg/kg/injection, schedule: Q01DX009 (ip), vehicle: saline with Tween-80
[21] = dose: 400.0 mg/kg/injection, schedule: Q04DX003 (ip), vehicle: Klucel (hydroxypropylcellulose) (HPC)
[22] = dose: 100.0 mg/kg/injection, schedule: Q01DX009 (ip), vehicle: Klucel (hydroxypropylcellulose) (HPC)

Measured: T/C

O=C1S/C(=C/c2ccccc2)C(=O)N1c1ccccc1
inactive: [1] 98 % of control | [2] 90 % of control | [3] 94 % of control

CCOC(=O)NCc1ccc(Cl)c(C(=O)O)c1
inactive: dose: 100.0 mg/kg/injection, schedule: Q01DX001 (ip), vehicle: saline 105 % of control | [4] 88 % of control | dose: 200.0 mg/kg/injection, schedule: Q01DX001 (ip), vehicle: saline 94 % of control | [5] 101 % of control | dose: 400.0 mg/kg/injection, schedule: Q01DX001 (ip), vehicle: saline 93 % of control | [6] 93 % of control

c1ccc(/C2=C(\c3ccccc3)CSSSSC2)cc1
inactive: dose: 50.0 mg/kg/injection, schedule: Q04DX003 (ip), vehicle: Klucel (hydroxypropylcellulose) (HPC) 105 % of control | [7] 98 % of control | [8] 98 % of control

Cc1ccc(S(=O)(=O)OC2CCC(=O)C3CC4(CCC23)OCCO4)cc1 (stereo unspecified)
inactive: dose: 100.0 mg/kg/injection, schedule: Q01DX001 (ip), vehicle: saline with Tween-80 91 % of control | dose: 200.0 mg/kg/injection, schedule: Q01DX001 (ip), vehicle: saline with Tween-80 87 % of control | dose: 400.0 mg/kg/injection, schedule: Q01DX001 (ip), vehicle: saline with Tween-80 95 % of control

O=C1CC(c2ccccc2Cl)N(S(=O)(=O)c2ccccc2)N1 (stereo unspecified)
inactive: [9] 112 % of control | [4] 104 % of control | [10] 107 % of control | [5] 102 % of control | [11] 106 % of control | [6] 102 % of control

N#Cc1c(SCC(=O)O)nsc1SCC(=O)O
inactive: dose: 100.0 mg/kg/injection, schedule: Q04DX002 (ip), vehicle: gum acacia 97 % of control | dose: 200.0 mg/kg/injection, schedule: Q04DX002 (ip), vehicle: gum acacia 94 % of control | dose: 400.0 mg/kg/injection, schedule: Q04DX002 (ip), vehicle: gum acacia 100 % of control

COc1c(O)cc2c(c1OC)-c1ccc(OC)c(=O)cc1C(NC=O)CC2 (stereo unspecified)
inactive: [12] 116 % of control | [13] 93 % of control

C=CC(=O)NCNC(C)C (tested in a mixture with another compound)
inactive: [14] 97 % of control | dose: 12.5 mg/kg/injection, schedule: Q01DX009 (ip), vehicle: saline 100 % of control and 93 % of control | [15] 97 % of control | dose: 25.0 mg/kg/injection, schedule: Q01DX009 (ip), vehicle: saline 95 % of control | [16] 90 % of control | dose: 50.0 mg/kg/injection, schedule: Q01DX009 (ip), vehicle: saline 100 % of control

CCOP(=O)(Nc1cc2c(cc1Cl)-c1ccccc1C2=O)OCC
inactive: [17] 99 % of control | [18] 89 % of control | [19] 91 % of control

CCOC(=O)c1ccc2ccccc2c1
inactive: [20] 94 % of control | dose: 200.0 mg/kg/injection, schedule: Q01DX009 (ip), vehicle: saline with Tween-80 97 % of control | dose: 400.0 mg/kg/injection, schedule: Q01DX009 (ip), vehicle: saline with Tween-80 89 % of control

NC(=O)Nc1ccc2c(c1)Cc1ccccc1-2
inactive: dose: 50.0 mg/kg/injection, schedule: Q01DX001 (ip), vehicle: carboxymethylcellulose (CMC) 100 % of control | [17] 96 % of control | [18] 100 % of control | [19] 102 % of control

C(=N/N=C(N/N=C/c1ccccc1)N/N=C/c1ccccc1)/c1ccccc1
inactive: dose: 15.0 mg/kg/injection, schedule: Q01DX Z (ip), vehicle: carboxymethylcellulose (CMC) 95 % of control | dose: 30.0 mg/kg/injection, schedule: Q01DX Z (ip), vehicle: carboxymethylcellulose (CMC) 95 % of control | dose: 60.0 mg/kg/injection, schedule: Q01DX Z (ip), vehicle: carboxymethylcellulose (CMC) 92 % of control | dose: 120.0 mg/kg/injection, schedule: Q01DX Z (ip), vehicle: carboxymethylcellulose (CMC) 92 % of control | dose: 188.0 mg/kg/injection, schedule: Q01DX Z (oral), vehicle: carboxymethylcellulose (CMC) 95 % of control | dose: 375.0 mg/kg/injection, schedule: Q01DX Z (oral), vehicle: carboxymethylcellulose (CMC) 105 % of control | dose: 750.0 mg/kg/injection, schedule: Q01DX Z (oral), vehicle: carboxymethylcellulose (CMC) 110 % of control | dose: 1500.0 mg/kg/injection, schedule: Q01DX Z (oral), vehicle: carboxymethylcellulose (CMC) 100 % of control

CCCCCCCCCCCCOC(=O)C(Cl)(Cl)Cl
inactive: dose: 100.0 mg/kg/injection, schedule: Q01DX001 (ip), vehicle: other 93 % of control | dose: 100.0 mg/kg/injection, schedule: Q04DX003 (ip), vehicle: other 102 % of control | dose: 200.0 mg/kg/injection, schedule: Q01DX001 (ip), vehicle: other 96 % of control | dose: 200.0 mg/kg/injection, schedule: Q04DX003 (ip), vehicle: other 96 % of control | dose: 400.0 mg/kg/injection, schedule: Q01DX001 (ip), vehicle: other 93 % of control | dose: 400.0 mg/kg/injection, schedule: Q04DX003 (ip), vehicle: other 97 % of control

c1ccc([P+](CC[P+](c2ccccc2)(c2ccccc2)c2ccccc2)(c2ccccc2)c2ccccc2)cc1
inactive: dose: 2.5 mg/kg/injection, schedule: Q04DX003 (ip), vehicle: saline 96 % of control | dose: 5.0 mg/kg/injection, schedule: Q01DX009 (ip), vehicle: saline 96 % of control | dose: 5.0 mg/kg/injection, schedule: Q04DX003 (ip), vehicle: saline 98 % of control | dose: 10.0 mg/kg/injection, schedule: Q01DX009 (ip), vehicle: saline 96 % of control | dose: 10.0 mg/kg/injection, schedule: Q04DX003 (ip), vehicle: saline 95 % of control and 98 % of control | dose: 20.0 mg/kg/injection, schedule: Q01DX009 (ip), vehicle: saline 104 % of control

CN1CCCC(OC(=O)c2cc3ccccc3s2)C1 (stereo unspecified)
inactive: [17] 101 % of control | [18] 106 % of control | [19] 98 % of control

NC(=O)NC(=O)NC1CCCCC1
inactive: [7] 102 % of control | [8] 102 % of control | [21] 100 % of control

CCCCC(=O)N/N=C\c1cc(Cl)cc(Cl)c1
inactive: [17] 100 % of control | [18] 93 % of control | [19] 96 % of control

COc1ccc(C)cc1NC(=O)Sc1ccc(Cl)cc1
inactive: dose: 50.0 mg/kg/injection, schedule: Q01DX009 (ip), vehicle: saline with Tween-80 117 % of control | [20] 95 % of control

CC1(C)CC2(C)OC3(C)CC(C)(C)OC3(C)OC2(C)O1 (stereo unspecified)
inactive: [1] 107 % of control | [2] 102 % of control | [3] 102 % of control

CCCCCCCCCCCC(=O)Nc1ccccc1
inactive: [14] 92 % of control | [15] 90 % of control | [16] 110 % of control

Cc1ccc(CN(C)N=Nc2ccc(C#N)cc2)cc1
inactive: [12] 96 % of control | [13] 87 % of control | dose: 400.0 mg/kg/injection, schedule: Q04DX003 (ip), vehicle: saline with Tween-80 94 % of control

O=C(Nc1ccc([N+](=O)[O-])cc1Cl)N(CC(O)c1ccccc1)C1CCCCC1 (stereo unspecified)
inactive: [9] 90 % of control | [4] 108 % of control | [10] 95 % of control | [5] 102 % of control | [11] 96 % of control | [6] 100 % of control

CC1(OC(=O)c2ccccc2)C2C=CC1C1C(=O)NC12 (stereo unspecified)
inactive: [22] 87 % of control | [7] 106 % of control | dose: 200.0 mg/kg/injection, schedule: Q01DX009 (ip), vehicle: Klucel (hydroxypropylcellulose) (HPC) 102 % of control | [8] 102 % of control | dose: 400.0 mg/kg/injection, schedule: Q01DX009 (ip), vehicle: Klucel (hydroxypropylcellulose) (HPC) 104 % of control | [21] 96 % of control

O=[N+]([O-])c1ccc(S(=O)(=O)CCCl)cc1
inactive: [16] 100 % of control | [22] 91 % of control
